For test [1], the target named is GABA-A receptor; anion channel. Put plainly: Affinity to displace [3H]flunitrazepam from Benzodiazepine receptor in bovine brain membrane. The class given is cell membranes.
Test [2] has as its target GABA-A receptor; anion channel (Bos taurus) (UniProt P10063+P08220+P20237+P08219+P10064+P22300). Nature of the test: Percent inhibition of [3H]flunitrazepam binding to GABA-A Benzodiazepine receptor of bovine brain membranes at 34 uM. The format is cell membranes.

With `Cc1ccc(-n2cc(-c3ccccc3)c3c(=O)oc4ccccc4c32)cc1`, in test [1], the IC50 – broadly, the concentration at which inhibition is half-maximal – came to 172 nM.
With `Cc1cccc(-n2nnc3c(=O)oc4ccccc4c32)c1`, in test [2], the inhibition (as a rule, the share of the control response that was lost under treatment) stood at 18%.
In the case of `O=c1oc2ccccc2c2c1c(-c1ccccc1)cn2-c1ccccc1`, in test [1], the IC50 turned out to be 65 nM.
On to `O=c1oc2ccccc2c2c1nnn2-c1ccccc1`, for which the inhibition in test [2] came to 0%.
For `O=c1oc2ccccc2c2c1c(-c1ccccc1)cn2-c1ccc(Cl)cc1`, the IC50 in test [1] is 40 nM.
Compound `O=c1oc2ccccc2c2c1cc(-c1ccccc1)n2-c1ccccc1` returned an inhibition in test [2] of 30%.
`Cc1cc(C)cc(-n2cc(-c3ccccc3)c3c(=O)oc4ccccc4c32)c1`: in test [1], the IC50 was 8.6 nM.
Regarding `COc1ccc(-n2cc(-c3ccccc3)c3c(=O)oc4ccccc4c32)cc1`, in test [1], the IC50 was 62 nM.
`Cc1nn(-c2cccc(Br)c2)c2c1c(O)nc1ccccc12`: the IC50 in test [1] came out at 2500 nM.
In turn, `COc1cccc(-n2cc(-c3ccccc3)c3c(=O)oc4ccccc4c32)c1` showed an IC50 in test [1] of 48 nM.
Take `COc1cccc(-n2nc(C)c3c(O)nc4ccccc4c32)c1`: the IC50 in test [1] came out at 7500 nM.
`O=c1oc2ccccc2c2c1c(-c1ccccc1)cn2-c1cccc(Cl)c1` displayed an IC50 in test [1] of 10 nM.
Consider `COC(=O)c1cc2c(cn1)[nH]c1ccccc12` [BETA-CCM], for which, in test [1], the IC50 stood at 16 nM.
`Cn1c(=O)c2c(-c3ccccc3)nn(-c3cccc(Cl)c3)c2c2ccccc21` showed an IC50 in test [1] of 70 nM.
As for `Cc1cccc(-n2nc(-c3ccccc3)c3c(=O)n(C)c4ccccc4c32)c1`, the IC50 in test [1] came out at 90 nM.
`Cc1cccc(-n2cc(-c3ccccc3)c3c(=O)oc4ccccc4c32)c1` came in with an IC50 in test [1] of 25 nM.
In turn, `CN1C(=O)CN=C(c2ccccc2)c2cc(Cl)ccc21` [DIAZEPAM] yielded an IC50 in test [1] of 13 nM.

Values taken from ChEMBL document CHEMBL1125055, “Tricyclic heteroaromatic systems. [1]benzopyranopyrrol-4-ones and [1]benzopyrano-1,2,3-triazol-4-ones as benzodiazepine receptor ligands. Synthesis and structure-activity relationships” (J Med Chem, 1990).
